Reference: US7358259B2, “HCV inhibitors and methods of using them” (Rigel Pharmaceuticals, Inc., priority 2003, dated 2008)

Test system: HCV replicon in 5-2Luc replicon cells
Experiment: HCV Replicon Assay (luciferase)
Type: cell-based
Details: Hepatitis C virus; Table 4; assay not given
Method: Actively dividing 5-2Luc replicon cells were seeded at the density of 5000-7500 cells/well in the volume of 90 μl/well into 96 well plate(s). The cells were then incubated at 37° C. and 5% CO2 for 24 hours. The 5-2 cells are replicon cells licensed from Ralf Bartenschlager (Germany) and have a self-replicating RNA molecule in the Huh7 cell; the RNA contains HCV non-structural proteins that make the self-replication possible.
Various concentrations of compounds (in the volume of 10 μl) were added into each well 24 hours after seeding the cells. The cells were incubated for another 24 hours before luciferase assay.
After incubating the 5-2 Luc replicon cells with the compounds for 24 hours, media were aspirated from each well and Bright-Glo ([…]) luciferase assay reagents were added to each well according to the manufacturer's manual. Briefly, the Bright-Glo reagent was diluted with equal volume of PBS and an aliquote (100 μl) was added to each well. After incubating the plate at room temperature for 5 minutes, luciferase counts were taken using a luminometer.

Structure (SMILES): O=C(NOC1CCCCO1)c1cc2ccc(F)cc2n2c(Cl)nnc12 (stereo not shown) [1-chloro-8-fluoro-N-(tetrahydro-2H-py-ran-2-yloxy)-[1,2,4]tri-azolo[4,3-a]quinoline-4-car-boxamide]
- IC50: > 10 µM

Structure (SMILES): O=C(NO)c1cc2ccc(F)cc2n2c(Cl)nnc12 [1-chloro-8-fluoro-N-hydroxy-[1,2,4]tri-azolo[4,3-a]quinoline-4-car-boxamide]
- IC50: < 10 µM

Structure (SMILES): O=C(NO)c1cc2ccccc2nc1Cl [2-chloro-N-hydroxyquinoline-3-car-boxamide]
- IC50: > 10 µM

Structure (SMILES): ClC(Cl)c1nnc(-c2cc3nnnn3c3ccccc23)o1 [5-(5-(dichloromethyl)-1,3,4-oxa-diazol-2-yl)tetrazolo[1,5-a]quino-line]
- IC50: > 10 µM

Structure (SMILES): O=C(NOC1CCCCO1)c1cc2c(Cl)cccc2n2nnnc12 (stereo not shown) [6-chloro-N-(tetrahydro-2H-pyran-2-yl-oxy)tetrazolo[1,5-a]quinoline-4-car-boxamide]
- IC50: > 10 µM

Structure (SMILES): O=C(NO)c1cc2c(Cl)cccc2n2nnnc12 [6-chloro-N-hydroxytetrazolo[1,5-a]quino-line-4-carboxamide]
- IC50: < 10 µM

Structure (SMILES): COc1cc2cc(C(=O)NOC3CCCCO3)c3nnnn3c2cc1OC (stereo not shown) [7,8-dimethoxy-N-(tetrahydro-2H-py-ran-2-yloxy)tetrazolo[1,5-a]quino-line-4-carboxamide]
- IC50: < 10 µM

Structure (SMILES): O=C(NOC1CCCCO1)c1cc2cc(Cl)cc(Cl)c2n2cnnc12 (stereo not shown) [7,9-dichloro-N-(tetrahydro-2H-py-ran-2-yloxy)-[1,2,4]tri-azolo[4,3-a]quinoline-4-car-boxamide]
- IC50: > 10 µM

Structure (SMILES): O=C(NOC1CCCCO1)c1cc2cc(Cl)cc(Cl)c2n2nnnc12 (stereo not shown) [7,9-dichloro-N-(tetrahydro-2H-py-ran-2-yloxy)tetrazolo[1,5-a]quino-line-4-carboxamide]
- IC50: > 10 µM

Structure (SMILES): O=C(NO)c1cc2cc(Cl)cc(Cl)c2n2nnnc12 [7,9-dichloro-N-hy-droxytetrazolo[1,5-a]quinoline-4-car-boxamide]
- IC50: < 10 µM

Structure (SMILES): O=C(NO)c1cc2cc(Cl)cc(Cl)c2n2cnnc12 [7,9-dichloro-N-hydroxy-[1,2,4]tri-azolo[4,3-a]quinoline-4-car-boxamide]
- IC50: < 10 µM

Structure (SMILES): O=C(O)c1cc2cc(Cl)cc(Cl)c2n2cnnc12 [7,9-dichloro-[1,2,4]triazolo[4,3-a]quino-line-4-carboxylic acid]
- IC50: > 10 µM

Structure (SMILES): Cc1cc(C)c2c(c1)cc(C(=O)NOC1CCCCO1)c1nnnn12 (stereo not shown) [7,9-dimethyl-N-(tetrahydro-2H-py-ran-2-yloxy)tetrazolo[1,5-a]quino-line-4-carboxamide]
- IC50: > 10 µM

Structure (SMILES): O=C(NOC1CCCCO1)c1cc2cc(Cl)ccc2n2cnnc12 (stereo not shown) [7-chloro-N-(tetrahydro-2H-pyran-2-yl-oxy)-[1,2,4]triazolo[4,3-a]quino-line-4-carboxamide]
- IC50: > 10 µM

Structure (SMILES): O=C(NOC1CCCCO1)c1cc2cc(Cl)ccc2n2nnnc12 (stereo not shown) [7-chloro-N-(tetrahydro-2H-pyran-2-yl-oxy)tetrazolo[1,5-a]quinoline-4-car-boxamide]
- IC50: > 10 µM

Structure (SMILES): Cc1nnc2c(C(=O)NO)cc3cc(Cl)ccc3n12 [7-chloro-N-hydroxy-1-methyl-[1,2,4]tri-azolo[4,3-a]quinoline-4-car-boxamide]
- IC50: < 10 µM

Structure (SMILES): O=C(NO)c1cc2cc(Cl)ccc2n2cnnc12 [7-chloro-N-hydroxy-[1,2,4]tri-azolo[4,3-a]quinoline-4-car-boxamide]
- IC50: < 10 µM

Structure (SMILES): O=C(NO)c1cc2cc(Cl)ccc2n2nnnc12 [7-chloro-N-hydroxytetrazolo[1,5-a]quino-line-4-carboxamide]
- IC50: < 10 µM

Structure (SMILES): O=C(NO)c1cc2cc(F)ccc2n2nnnc12 [7-fluoro-N-hydroxytetrazolo[1,5-a]quino-line-4-carboxamide]
- IC50: < 10 µM

Structure (SMILES): COc1cc2cc(C(=O)NOC3CCCCO3)c3nnnn3c2cc1Cl (stereo not shown) [8-chloro-7-methoxy-N-(tetra-hydro-2H-pyran-2-yl-oxy)tetrazolo[1,5-a]quinoline-4-car-boxamide]
- IC50: > 10 µM

Structure (SMILES): COc1cc2cc(C(=O)NO)c3nnnn3c2cc1Cl [8-chloro-N-hydroxy-7-meth-oxytetrazolo[1,5-a]quino-line-4-carboxamide]
- IC50: < 10 µM

Structure (SMILES): CN(O)C(=O)c1cc2ccc(Cl)cc2n2nnnc12 [8-chloro-N-hydroxy-N-meth-yltetrazolo[1,5-a]quinoline-4-car-boxamide]
- IC50: > 10 µM

Structure (SMILES): O=C(NO)c1cc2ccc(Cl)cc2n2nnnc12 [8-chloro-N-hydroxytetrazolo[1,5-a]quino-line-4-carboxamide]
- IC50: < 10 µM

Structure (SMILES): O=C(O)c1cc2ccc(F)cc2n2cnnc12 [8-fluoro-[1,2,4]triazolo[4,3-a]quino-line-4-carboxylic acid]
- IC50: > 10 µM

Structure (SMILES): COc1ccc2cc(C(=O)NOC3CCCCO3)c3nnnn3c2c1 (stereo not shown) [8-methoxy-N-(tetrahydro-2H-py-ran-2-yloxy)tetrazolo[1,5-a]quino-line-4-carboxamide]
- IC50: > 10 µM

Structure (SMILES): O=C(NOC1CCCCO1)c1cc2cccc(Cl)c2n2nnnc12 (stereo not shown) [9-chloro-N-(tetrahydro-2H-pyran-2-yl-oxy)tetrazolo[1,5-a]quinoline-4-car-boxamide]
- IC50: > 10 µM

Structure (SMILES): O=C(NO)c1cc2cccc(Cl)c2n2nnnc12 [9-chloro-N-hydroxytetrazolo[1,5-a]quino-line-4-carboxamide]
- IC50: < 10 µM

Structure (SMILES): Cc1cccc2cc(C(=O)NOC3CCCCO3)c3nnnn3c12 (stereo not shown) [9-methyl-N-(tetrahydro-2H-pyran-2-yl-oxy)tetrazolo[1,5-a]quinoline-4-car-boxamide]
- IC50: > 10 µM

Structure (SMILES): O=C(NOC1CCCCO1)c1cc2ccccc2n2nnnc12 (stereo not shown) [N-(tetrahydro-2H-pyran-2-yl-oxy)tetrazolo[1,5-a]quinoline-4-car-boxamide]
- IC50: > 10 µM

Structure (SMILES): O=C(NOC1CCCCO1)c1cc2nnnn2c2ccccc12 (stereo not shown) [N-(tetrahydro-2H-pyran-2-yl-oxy)tetrazolo[1,5-a]quinoline-5-car-boxamide]
- IC50: > 10 µM

Structure (SMILES): O=C(NOC1CCCCO1)c1cc2ccc(OC(F)(F)F)cc2n2nnnc12 (stereo not shown) [N-(tetrahydro-2H-pyran-2-yloxy)-8-(tri-fluoromethoxy)tetrazolo[1,5-a]quino-line-4-carboxamide]
- IC50: > 10 µM

Structure (SMILES): COc1cc2cc(C(=O)NO)c3nnnn3c2cc1OC [N-hydroxy-7,8-di-methoxytetrazolo[1,5-a]quino-line-4-carboxamide]
- IC50: < 10 µM

Structure (SMILES): Cc1cc(C)c2c(c1)cc(C(=O)NO)c1nnnn12 [N-hydroxy-7,9-di-methyltetrazolo[1,5-a]quino-line-4-carboxamide]
- IC50: < 10 µM

Structure (SMILES): O=C(NO)c1cc2cc3c(cc2n2nnnc12)OCCO3 [N-hydroxy-8,9-di-hydro[1,4]dioxino[2,3-g]tetra-zolo[1,5-a]quinoline-4-car-boxamide]
- IC50: < 10 µM

Structure (SMILES): O=C(NO)c1cc2ccc(OC(F)(F)F)cc2n2nnnc12 [N-hydroxy-8-(tri-fluoromethoxy)tetrazolo[1,5-a]quino-line-4-carboxamide]
- IC50: < 10 µM

Structure (SMILES): O=C(NO)c1cc2ccc(C(F)(F)F)cc2n2nnnc12 [N-hydroxy-8-(tri-fluoromethyl)tetrazolo[1,5-a]quino-line-4-carboxamide]
- IC50: < 10 µM

Structure (SMILES): COc1ccc2cc(C(=O)NO)c3nnnn3c2c1 [N-hydroxy-8-meth-oxytetrazolo[1,5-a]quino-line-4-carboxamide]
- IC50: > 10 µM

Structure (SMILES): Cc1cccc2cc(C(=O)NO)c3nnnn3c12 [N-hydroxy-9-methyltetrazolo[1,5-a]quino-line-4-carboxamide]
- IC50: < 10 µM

Structure (SMILES): O=C(NO)c1cnc2ccccc2c1 [N-hydroxyquinoline-3-car-boxamide]
- IC50: > 10 µM

Structure (SMILES): O=C(NO)c1cc2ccccc2n2nnnc12 [N-hydroxytetrazolo[1,5-a]quino-line-4-carboxamide]
- IC50: < 10 µM

Structure (SMILES): O=C(NO)c1cc2nnnn2c2ccccc12 [N-hydroxytetrazolo[1,5-a]quino-line-5-carboxamide]
- IC50: > 10 µM

Structure (SMILES): CCOC(=O)c1cc2cc(Cl)cc(Cl)c2n2cnnc12 [ethyl 7,9-dichloro-[1,2,4]tri-azolo[4,3-a]quinoline-4-car-boxylate]
- IC50: > 10 µM

Structure (SMILES): CCOC(=O)c1cc2cc(Cl)ccc2n2c(C)nnc12 [ethyl 7-chloro-1-methyl-[1,2,4]tri-azolo[4,3-a]quinoline-4-car-boxylate]
- IC50: > 10 µM

Structure (SMILES): CCOC(=O)c1cc2cc(Cl)ccc2n2cnnc12 [ethyl 7-chloro-[1,2,4]tri-azolo[4,3-a]quinoline-4-car-boxylate]
- IC50: > 10 µM

Structure (SMILES): COC(=O)c1cc2ccc(F)cc2n2cnnc12 [methyl 8-fluoro-[1,2,4]tri-azolo[4,3-a]quinoline-4-car-boxylate]
- IC50: > 10 µM

Structure (SMILES): COC(=O)c1cc2nnnn2c2ccccc12 [methyl tetrazolo[1,5-a]quinoline-5-car-boxylate]
- IC50: > 10 µM
